In publication PMC6332320, “Factors Influencing Oral Bioavailability of Thai Mango Seed Kernel Extract and Its Key Phenolic Principles” (Molecules, 2015):

Assays:
Caco-2 cells = conditions: cited from earlier work
[1] = mouse, in vivo, po, 80 mg/kg; cited from earlier work
[2] = rat, in vivo, ip, 20 mg/kg; cited from earlier work
Caco-2 cell lysates = assay: Biological stability in Caco-2 cell lysates; assay type: in vitro ADME, human; conditions: individual compound 100 µM, HBSS pH 6, up to 24 h
Description: Caco-2 cells were cultured in T75 flasks at a seeding density of 2 × 10^6 cells/flask for 12–15 days. The cell lysate was freshly prepared by washing the cells twice with ice-cold HBSS at pH 6 (12 mL). The cells were then collected by scraping and resuspending in ice-cold HBSS at pH 6 (7.5 mL/flask). The cell suspension was vortexed and sonicated in an ice water bath for 30 min to obtain the lysate, which was kept on ice until use, and its cellular protein concentration was determined using a BCA™ protein assay kit (Thermo Fisher Scientific, Rockford, IL, USA) with bovine serum albumin as a reference standard.
Many phenolic compounds were subject to sulfation and glucuronidation by Caco-2 cells at concentrations higher than 20 μM [16, 21, 43] and the metabolites of GA, MG and PGG could not be observed in Caco-2 transport experiment. Therefore, the concentration of the standard pure compounds used in this study was higher than that used in the chemical stability experiment. After preparing the cell lysate, the test compounds were prepared by dissolution in HBSS at pH 6 and then added to the lysates for a final concentration of 1.08 mg/mL protein to obtain final individual concentrations of 100 μM for GA, MG and PGG and 0.75 mg/mL for MSKE, which is equivalent to concentrations of 55.12 ± 4.57 µM GA, 7.56 ± 0.85 µM MG and 110.02 ± 17.52 µM PGG. The mixtures were then incubated in a water bath at 37 °C for 24 h, and samples (50 µL for standard compounds, and 200 µL for MSKE) were collected at 0, 4, 6 and 24 h. Each sample was then added to an ice-cold 50% methanol (150 µL for GA, MG and PGG, and 600 µL for MSKE) to stop the reaction, vortexed and centrifuged at 15,500 rpm for 15 min, and the supernatant was injected into the UPLC for analysis.
The chemical and biological stabilities of the phenolic compounds were expressed as the concentration of the analyte at different time points relative to the concentration of the same analyte at time zero multiplied by 100 (% recovery).

O=C(OC[C@H]1O[C@@H](OC(=O)c2cc(O)c(O)c(O)c2)[C@H](OC(=O)c2cc(O)c(O)c(O)c2)[C@@H](OC(=O)c2cc(O)c(O)c(O)c2)[C@@H]1OC(=O)c1cc(O)c(O)c(O)c1)c1cc(O)c(O)c(O)c1 [PGG, Pentagalloylglucopyranose]
Papp AB (Caco-2 cells): 0.08 ± 0.03 × 10^−6 cm/s
plasma PGG levels [1]: below the limit of detection
Cmax [2]: 6 µM
stability in HBSS at pH 6 (blank control) (Caco-2 cell lysates): stable in HBSS at pH 6 for 6 h and slightly degraded within 24 h
